Results taken from patent publication US20260000781A1, “FC CONJUGATES INCLUDING AN INHIBITOR OF CD73 AND USES THEREOF” (Cidara Therapeutics, Inc., priority 2022, published 2026).

Tests used:
[1] = test system: breast tumor cell line EMT-6; assay: Syngeneic mouse tumor efficacy model with breast tumor cell line EMT-6; type: in vivo; conditions: EMT-6, IP
Method: Tumor efficacy models were conducted in female BALB/c mice (Charles River laboratories; 18-22 g) injected with the breast tumor cell line EMT-6 (ATCC; CRL-2755). Briefly, EMT-6 cells propagated and prepared by standard methods were resuspended in PBS and injected subcutaneously (in a 100 μL volume) into the shaved right flank of mice. Five days after cell injection, and prior to measurable tumor formation, treatment was initiated via IP injection (10 mL/kg) of test articles or controls. […] The test article was Conjugate 172a dosed at 30 mg/kg twice weekly, for 3 weeks. The final group consisted of mice dosed with both the anti-PD-1 mAb and Conjugate 172a at 30 mg/kg using the respective dosing schedules for each.
Each group consisted of 15 animals and tumors were measured 3× weekly with calipers on Mon/Wed/Fri. Tumor volumes were calculated based on the following formula: [(width×width×length)/2]. All tumors were monitored until the maximum allowed volume was reached (=>2,000 mm^3).
Although occasionally an animal would be removed from study if the tumor grew internally causing undo stress to the animal, or the inability to measure the tumor accurately. Data was analyzed and graphed with Graphpad Prism 6.00. Where conducted, statistical evaluation used the Mann-Whitney variation of the t-test. […]

human T cells = assay: Rescue of T cell activation in the presence of AMP; type: cell-based; conditions: CD25, 72 h
Method: Human T cells (cat. no. 72400, Stem Cell Tech) were activated with anti-CD3/CD28/CD2 T cell activator (cat. no. 10970, Stem Cell Technologies) and seeded at 1×10^5 cells/well in ImmunoCult™—XF T Cell Expansion medium into 96-well tissue culture-treated plates. Test articles were added at concentrations ranging from 1 to 10,000 nM. Next, adenosine 5′-monophosphate (AMP; cat. no 01930, Sigma) was added at 30 μM or 100 μM. Cells, test articles and AMP were incubated at 37° C., 5% CO2 for 72 h. After 72 h, cell supernatant was removed, and T cells were washed in staining buffer prior to staining for CD25 with anti-human CD25 PE antibody (cat. no 60153PE, Stem Cell Technologies, clone 2A3). After staining, cells were washed in staining buffer. 10,000 events were collected on flow cytometer Northern Lights (Cytek). Percent rescue versus concentration were plotted using GraphPad Prism Version 8 and EC50's calculated using nonlinear regression analysis ([inhibitor]vs normalized response).

[2] = molecular target: T1, surface-expressed CD73 on human PBMCs (Homo sapiens, UniProt P21589); assay: Human immune cell-based CD73 enzyme inhibition assay (PBMCs); conditions: AMP 300 μM, 2.5-3 h
T1 construct: 72400 (T cells); host or cells: human PBMCs / human T cells
T1 sequence (P21589 27-549): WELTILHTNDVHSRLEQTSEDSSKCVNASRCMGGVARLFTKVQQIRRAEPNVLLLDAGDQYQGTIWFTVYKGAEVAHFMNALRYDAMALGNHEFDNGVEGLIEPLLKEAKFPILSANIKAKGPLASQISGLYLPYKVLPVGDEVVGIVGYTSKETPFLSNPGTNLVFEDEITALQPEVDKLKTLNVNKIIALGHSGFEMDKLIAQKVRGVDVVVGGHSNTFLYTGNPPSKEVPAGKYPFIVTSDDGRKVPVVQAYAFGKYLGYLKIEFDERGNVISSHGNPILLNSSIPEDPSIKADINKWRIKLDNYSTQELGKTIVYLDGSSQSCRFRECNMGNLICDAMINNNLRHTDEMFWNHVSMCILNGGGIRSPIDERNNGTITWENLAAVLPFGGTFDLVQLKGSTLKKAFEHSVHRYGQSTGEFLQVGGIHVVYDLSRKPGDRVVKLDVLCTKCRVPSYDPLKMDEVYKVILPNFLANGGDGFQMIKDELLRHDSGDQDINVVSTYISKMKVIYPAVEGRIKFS
Method: The human immune cell-based CD73 enzyme inhibition assay was performed essentially as described above For the cell-free assay, with the following modifications. Human PBMCs (cat. no. HUMAN-PBMC-U-211140) or T cells (cat. no. 72400, Stem Cell Tech) were seeded at 8×10^3 cells/well into 96-well tissue culture-treated plates. […] Percent CD73 inhibition versus concentration were plotted using GraphPad Prism Version 8 and IC50's calculated using nonlinear regression analysis ([inhibitor]vs normalized response).

With `C[C@H](Nc1cc(Cl)nc2c1cnn2[C@@H]1O[C@H](COP(=O)(O)CP(=O)(O)O)[C@@H](O)[C@H]1O)c1ccccc1F` [AB680] the “% Complete regression (Day 36)” value ([1]; 15 animals per group, regimens as for % tumor reduction) was 6.7% and the “% Tumor reduction (Day 22)” value ([1]; Conjugate 172a 30 mg/kg twice weekly for 3 weeks, AB680 30 mg/kg daily, anti-PD-1 mAb on Day 0, 2, 4, 7, 9, 12) was 0%.
`COC[C@](CO)(OC[C@H]1O[C@@H](n2ncc3c(NC4CCCC4)nc(Cl)nc32)[C@H](O)[C@@H]1O)P(=O)(O)O` [OP5244] showed an EC50 (human T cells; 30 μM AMP) of 2.88 nM, an EC50 (human T cells; 100 μM AMP) of 8.37 nM and an IC50 [2] of 0.02 nM.
